Results as given in PubChem BioAssay AID248 (DTP/NCI, 2004).
Inconclusive results and toxic doses are left out. Rule as the data show it: active = T/C of 150% or more; inactive = T/C below 125%.

System: L1210 leukemia ip in BDF1 mice, survival T/C
Assay: NCI In Vivo Anticancer Drug Screen. Data for tumor model L1210 Leukemia (intraperitoneal) in B6D2F1 (BDF1) mice
Settings: endpoint: mean survival time, higher = longer survival
Method in brief: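 Tumor cells were implanted, animals were treated, and survival was followed. The result divides the treated measurement by the vehicle-control measurement.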

[1] = dose: 100.0 mg/kg/injection, schedule: Q04DX003 (ip), vehicle: Klucel (hydroxypropylcellulose) (HPC)
[2] = dose: 200.0 mg/kg/injection, schedule: Q04DX003 (ip), vehicle: Klucel (hydroxypropylcellulose) (HPC)
[3] = dose: 400.0 mg/kg/injection, schedule: Q04DX003 (ip), vehicle: Klucel (hydroxypropylcellulose) (HPC)
[4] = dose: 100.0 mg/kg/injection, schedule: Q04DX002 (ip), vehicle: saline with Tween-80
[5] = dose: 200.0 mg/kg/injection, schedule: Q04DX002 (ip), vehicle: saline with Tween-80
[6] = dose: 400.0 mg/kg/injection, schedule: Q04DX002 (ip), vehicle: saline with Tween-80
[7] = dose: 100.0 mg/kg/injection, schedule: Q01DX001 (ip), vehicle: saline
[8] = dose: 200.0 mg/kg/injection, schedule: Q01DX001 (ip), vehicle: saline
[9] = dose: 400.0 mg/kg/injection, schedule: Q01DX001 (ip), vehicle: saline
[10] = dose: 100.0 mg/kg/injection, schedule: Q04DX002 (ip), vehicle: Klucel (hydroxypropylcellulose) (HPC)
[11] = dose: 200.0 mg/kg/injection, schedule: Q04DX002 (ip), vehicle: Klucel (hydroxypropylcellulose) (HPC)
[12] = dose: 400.0 mg/kg/injection, schedule: Q04DX002 (ip), vehicle: Klucel (hydroxypropylcellulose) (HPC)
[13] = dose: 100.0 mg/kg/injection, schedule: Q01DX001 (ip), vehicle: carboxymethylcellulose (CMC)
[14] = dose: 200.0 mg/kg/injection, schedule: Q01DX001 (ip), vehicle: carboxymethylcellulose (CMC)
[15] = dose: 400.0 mg/kg/injection, schedule: Q01DX001 (ip), vehicle: carboxymethylcellulose (CMC)
[16] = dose: 100.0 mg/kg/injection, schedule: Q04DX002 (ip), vehicle: saline
[17] = dose: 200.0 mg/kg/injection, schedule: Q04DX002 (ip), vehicle: saline
[18] = dose: 50.0 mg/kg/injection, schedule: Q01DX009 (ip), vehicle: saline with Tween-80
[19] = dose: 50.0 mg/kg/injection, schedule: Q04DX003 (ip), vehicle: saline
[20] = dose: 100.0 mg/kg/injection, schedule: Q04DX003 (ip), vehicle: saline
[21] = dose: 50.0 mg/kg/injection, schedule: Q01DX009 (ip), vehicle: saline
[22] = dose: 100.0 mg/kg/injection, schedule: Q01DX009 (ip), vehicle: saline

Measured: T/C

Cc1c(Cl)cccc1NS(=O)(=O)c1ccc(Cl)cc1
inactive: dose: 100.0 mg/kg/injection, schedule: Q01DX009 (ip), vehicle: Klucel (hydroxypropylcellulose) (HPC) 117 % of control | [1] 102 % of control | dose: 200.0 mg/kg/injection, schedule: Q01DX009 (ip), vehicle: Klucel (hydroxypropylcellulose) (HPC) 111 % of control | [2] 119 % of control | dose: 400.0 mg/kg/injection, schedule: Q01DX009 (ip), vehicle: Klucel (hydroxypropylcellulose) (HPC) 101 % of control | [3] 110 % of control

CCCCSC(C)(SCCCC)SCCCC
inactive: [4] 97 % of control | [5] 101 % of control | [6] 116 % of control

O=C(CCCC(=O)NNC(=O)Nc1ccc(N=Nc2ccccc2)cc1)NNC(=O)Nc1ccc(N=Nc2ccccc2)cc1
inactive: dose: 50.0 mg/kg/injection, schedule: Q01DX001 (ip), vehicle: saline 93 % of control | [7] 102 % of control | [8] 96 % of control | [9] 100 % of control

COc1ccc(/C=C(\C#N)c2ccc([N+](=O)[O-])cc2)cc1[N+](=O)[O-]
inactive: [10] 105 % of control | [11] 105 % of control | [12] 102 % of control

Nc1ncnc2c1ncn2C1OC(C(=O)O)C(O)C1O (stereo unspecified)
inactive: dose: 100.0 mg/kg/injection, schedule: Q01DX005 (ip), vehicle: saline 107 % of control | dose: 200.0 mg/kg/injection, schedule: Q01DX005 (ip), vehicle: saline 101 % of control

CC(=O)Nc1ccc(Cc2ccc3[nH]c(=O)cc(C)c3c2)cc1
inactive: [13] 96 % of control | [14] 98 % of control | [15] 101 % of control

CCCCCCCCCCCCC(=O)N1CCCCC1
inactive: [16] 91 % of control | [17] 102 % of control

O=C(O)c1ccsc1C(=O)c1ccccc1
inactive: dose: 100.0 mg/kg/injection, schedule: Q01DX001 (ip), vehicle: saline with Tween-80 105 % of control | dose: 200.0 mg/kg/injection, schedule: Q01DX001 (ip), vehicle: saline with Tween-80 102 % of control | dose: 400.0 mg/kg/injection, schedule: Q01DX001 (ip), vehicle: saline with Tween-80 97 % of control

COc1cccc(C(C)(C)CO)c1
inactive: [18] 93 % of control | dose: 100.0 mg/kg/injection, schedule: Q01DX009 (ip), vehicle: saline with Tween-80 89 % of control | dose: 200.0 mg/kg/injection, schedule: Q01DX009 (ip), vehicle: saline with Tween-80 89 % of control

CC1CCCCC1(C)C1C=CC(=O)OC1(C)C (stereo unspecified)
inactive: dose: 25.0 mg/kg/injection, schedule: Q04DX003 (ip), vehicle: saline 97 % of control | [19] 97 % of control | [20] 97 % of control

O=S(=O)(O)CCS
inactive: [7] 94 % of control | [8] 105 % of control | [9] 100 % of control

O=[N+]([O-])c1ccc(N=Cc2ccccc2O)cc1.O=[N+]([O-])c1ccc(N=Cc2ccccc2O)cc1.[Cu]
inactive: dose: 12.5 mg/kg/injection, schedule: Q01DX009 (ip), vehicle: saline with Tween-80 100 % of control | dose: 25.0 mg/kg/injection, schedule: Q01DX009 (ip), vehicle: saline with Tween-80 94 % of control | [18] 93 % of control

c1ccc(C2C(c3ccccc3)C(c3ccccc3)C2c2ccccc2)cc1 (stereo unspecified)
inactive: dose: 75.0 mg/kg/injection, schedule: Q01DX001 (ip), vehicle: carboxymethylcellulose (CMC) 91 % of control | dose: 150.0 mg/kg/injection, schedule: Q01DX001 (ip), vehicle: carboxymethylcellulose (CMC) 94 % of control | dose: 300.0 mg/kg/injection, schedule: Q01DX001 (ip), vehicle: carboxymethylcellulose (CMC) 88 % of control

CC12C(=O)C(C)(C(c3ccccc3)=C1c1ccccc1)C1C=CN(S(C)(=O)=O)C=CC12 (stereo unspecified)
inactive: [4] 86 % of control | [5] 88 % of control | [6] 86 % of control

C1=Nc2c(ncnc2SCc2ccccc2)NN1
inactive: dose: 5.0 mg/kg/injection, schedule: Q01DX001 (ip), vehicle: other 100 % of control | dose: 10.0 mg/kg/injection, schedule: Q01DX001 (ip), vehicle: other 106 % of control | dose: 20.0 mg/kg/injection, schedule: Q01DX001 (ip), vehicle: other 100 % of control | dose: 40.0 mg/kg/injection, schedule: Q01DX001 (ip), vehicle: other 100 % of control | dose: 50.0 mg/kg/injection, schedule: Q01DX001 (ip), vehicle: other 113 % of control | dose: 80.0 mg/kg/injection, schedule: Q01DX001 (ip), vehicle: other 93 % of control | dose: 100.0 mg/kg/injection, schedule: Q01DX001 (ip), vehicle: other 88 % of control

Cc1cc(=O)[nH]c(NCCCC(N)C(=O)O)n1 (stereo unspecified)
inactive: [16] 104 % of control | [17] 101 % of control | dose: 400.0 mg/kg/injection, schedule: Q04DX002 (ip), vehicle: saline 96 % of control

O=C(COc1ccc([N+](=O)[O-])cc1)OCCN1CCOCC1
inactive: [13] 92 % of control | [14] 111 % of control | [15] 101 % of control

CC(=O)OC1CCC2(C)C(CCC3C4CCC(C(C)OC(C)=O)C4NC(=O)CC32)C1 (stereo unspecified)
inactive: dose: 75.0 mg/kg/injection, schedule: Q01DX001 (ip), vehicle: other 104 % of control | dose: 150.0 mg/kg/injection, schedule: Q01DX001 (ip), vehicle: other 101 % of control | dose: 300.0 mg/kg/injection, schedule: Q01DX001 (ip), vehicle: other 93 % of control

C[N+]1(C2CCC3CCC2C3O)CCCCC1 (stereo unspecified)
inactive: [21] 100 % of control | [22] 110 % of control | [20] 101 % of control | dose: 200.0 mg/kg/injection, schedule: Q01DX009 (ip), vehicle: saline 110 % of control | dose: 200.0 mg/kg/injection, schedule: Q04DX003 (ip), vehicle: saline 101 % of control

O=C(O)c1ccccc1Br
inactive: [4] 96 % of control | [5] 93 % of control

CCCCCCCCCCCCOc1ccc(C=Nc2ccc(C)cc2)cc1
inactive: [10] 109 % of control | [11] 109 % of control | [12] 95 % of control

C=CCOP(OCC=C)OCC=C
inactive: dose: 25.0 mg/kg/injection, schedule: Q01DX009 (ip), vehicle: saline 103 % of control | [21] 103 % of control | [19] 97 % of control | [22] 87 % of control | [20] 101 % of control

CCCCCCCCCCCCN(CCCCCCCCCCCC)S(=O)(=O)c1ccc(Cl)c([N+](=O)[O-])c1
inactive: [1] 94 % of control | [2] 94 % of control | [3] 104 % of control

CCOC(=O)C(C=Nc1ccc(S(N)(=O)=O)cc1)C(=O)OCC
inactive: dose: 100.0 mg/kg/injection, schedule: Q04DX003 (ip), vehicle: saline with Tween-80 105 % of control | dose: 200.0 mg/kg/injection, schedule: Q04DX003 (ip), vehicle: saline with Tween-80 92 % of control | dose: 400.0 mg/kg/injection, schedule: Q04DX003 (ip), vehicle: saline with Tween-80 92 % of control
